Experimental data from ChEMBL document CHEMBL1201862, “PubChem BioAssay data set” (2004).
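Growth conditions: 96-well plates. Treatment: test compound, 48 hours, 5 concentrations. Analysis: linear interpolation between bracketing concentrations; unreached endpoints set to highest concentration. Here, GI50 denotes the concentration required for 50% inhibition of growth.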 Calls of active or inactive are those of the source. Rule as the data show it: active = GI50 up to about 1.1 µM and inactive = higher.

Key:
Test in all cases: DTP human tumour cell line panel, 48 h
RXF 393 = test system: RXF 393
A549 = test system: A549
PC-3 = test system: PC-3
SF-295 = test system: SF-295
MDA-N = test system: MDA-N
SK-MEL-28 = test system: SK-MEL-28
EKVX = test system: EKVX
NCI-H460 = test system: NCI-H460
SF-268 = test system: SF-268
A498 = test system: A498
MDA-MB-231 = test system: MDA-MB-231
HOP-62 = test system: HOP-62
SK-MEL-5 = test system: SK-MEL-5
RPMI-8226 = test system: RPMI-8226
HL-60 = test system: HL-60
BT-549 = test system: BT-549
M14 = test system: M14
CCRF-CEM = test system: CCRF-CEM
T47D = test system: T47D

SMILES | GI50 (RXF 393) | GI50 (A549) | GI50 (PC-3) | GI50 (SF-295) | GI50 (MDA-N) | GI50 (SK-MEL-28) | GI50 (EKVX) | GI50 (NCI-H460) | GI50 (SF-268) | GI50 (A498) | GI50 (MDA-MB-231) | GI50 (HOP-62) | GI50 (SK-MEL-5) | GI50 (RPMI-8226) | GI50 (HL-60) | GI50 (BT-549) | GI50 (M14) | GI50 (CCRF-CEM) | GI50 (T47D)
CC(NC(=O)c1ccc(Cl)c(Cl)c1)c1ccc(-c2ccccc2)cc1 (stereo not given) | 12.1 µM (inactive) | 16.4 µM (inactive) | 28.2 µM (inactive) | 29.9 µM (inactive) | > 100 µM (inactive) | 58.6 µM (inactive) | 35 µM (inactive) | 47.4 µM (inactive) | 29.3 µM (inactive) | 28.9 µM (inactive) | 42.7 µM (inactive) | 22.2 µM (inactive) | 75.7 µM (inactive) | 39.4 µM (inactive) | 4.58 µM (inactive) | 66.5 µM (inactive) | 64.7 µM (inactive) |  | 
Oc1nnc(-c2ccc(F)cc2)cc1-c1ccccc1 | 46.1 µM (inactive) | > 100 µM (inactive) | 91.4 µM (inactive) | 40.4 µM (inactive) |  | 83.9 µM (inactive) | 42.9 µM (inactive) | 89.7 µM (inactive) | 46.1 µM (inactive) | 64.4 µM (inactive) | > 100 µM (inactive) |  | > 100 µM (inactive) | 75 µM (inactive) | > 100 µM (inactive) |  | > 100 µM (inactive) | > 100 µM (inactive) | 44.2 µM (inactive)
COc1ccc(CC(C)NCC(O)c2ccc(O)c(NC=O)c2)cc1 (stereo not given) | > 100 µM (inactive) | > 100 µM (inactive) | > 100 µM (inactive) | 33.9 µM (inactive) |  | > 100 µM (inactive) | > 100 µM (inactive) | > 100 µM (inactive) | > 100 µM (inactive) | > 100 µM (inactive) | < 0.01 µM (active) | > 100 µM (inactive) | > 100 µM (inactive) | > 100 µM (inactive) |  | > 100 µM (inactive) | > 100 µM (inactive) | > 100 µM (inactive) | > 100 µM (inactive)
Clc1ccc(Cc2nc3cc4ccccc4cc3[nH]2)cc1Cl | 16.4 µM (inactive) | 16.4 µM (inactive) | 13 µM (inactive) |  |  | 12.6 µM (inactive) | 29.2 µM (inactive) | 6.97 µM (inactive) | 15.9 µM (inactive) | 13.6 µM (inactive) | 16.6 µM (inactive) | 26.1 µM (inactive) | 3.93 µM (inactive) | 31.3 µM (inactive) | 16.3 µM (inactive) | 16 µM (inactive) | 26.2 µM (inactive) | 37.9 µM (inactive) | 12.2 µM (inactive)
COc1ccc(C2SCC(=O)N2c2ccc(-n3c(-c4ccccc4)nc4ccccc4c3=O)cc2)cc1 (stereo not given) |  | > 100 µM (inactive) | 42.1 µM (inactive) | > 100 µM (inactive) |  | > 100 µM (inactive) | > 100 µM (inactive) | > 100 µM (inactive) | > 100 µM (inactive) | > 100 µM (inactive) | > 100 µM (inactive) | > 100 µM (inactive) | > 100 µM (inactive) | > 100 µM (inactive) | > 100 µM (inactive) | > 100 µM (inactive) | > 100 µM (inactive) | > 100 µM (inactive) | 21.6 µM (inactive)
COC12OCCN(C)C1=CC(=O)C1(C)N=NCC12 (stereo not given) | > 100 µM (inactive) | > 100 µM (inactive) |  | > 100 µM (inactive) |  | > 100 µM (inactive) | > 100 µM (inactive) | > 100 µM (inactive) |  | > 100 µM (inactive) |  |  | > 100 µM (inactive) | > 100 µM (inactive) |  |  | > 100 µM (inactive) | > 100 µM (inactive) | 
Cc1c(Cl)c(=O)oc2cc(OCC(O)COC(C)C)ccc12 (stereo not given) |  | 42.2 µM (inactive) | 43.5 µM (inactive) | 64.4 µM (inactive) | 48.1 µM (inactive) | > 100 µM (inactive) | 37.1 µM (inactive) | 36.1 µM (inactive) | 97.1 µM (inactive) |  |  | 38.7 µM (inactive) | 19.8 µM (inactive) | 50.6 µM (inactive) | 22.1 µM (inactive) |  | 32.2 µM (inactive) | 34.3 µM (inactive) | 69.7 µM (inactive)
O=S1(=O)c2cnccc2N=C(NCc2ccccc2)N1c1ccccc1 | > 100 µM (inactive) | > 100 µM (inactive) | 75.3 µM (inactive) | 89.1 µM (inactive) |  | > 100 µM (inactive) | > 100 µM (inactive) | 49.7 µM (inactive) | > 100 µM (inactive) | > 100 µM (inactive) |  | > 100 µM (inactive) | 55.5 µM (inactive) | 20.6 µM (inactive) | 41.4 µM (inactive) | > 100 µM (inactive) | > 100 µM (inactive) | 41 µM (inactive) | 35.8 µM (inactive)
OC(c1cccnc1)C(F)(F)c1nc2ccccc2o1 (stereo not given) | > 100 µM (inactive) |  | > 100 µM (inactive) |  |  | > 100 µM (inactive) | > 100 µM (inactive) | > 100 µM (inactive) | > 100 µM (inactive) | 49.9 µM (inactive) | > 100 µM (inactive) | > 100 µM (inactive) | > 100 µM (inactive) | > 100 µM (inactive) | > 100 µM (inactive) | > 100 µM (inactive) |  | > 100 µM (inactive) | > 100 µM (inactive)
CC(O[Si](C)(C)C)C1C=CC(C)n2c(=O)n(-c3ccccc3)c(=O)n21 (stereo not given) | > 100 µM (inactive) | > 100 µM (inactive) |  | > 100 µM (inactive) |  | > 100 µM (inactive) | > 100 µM (inactive) |  | < 0.01 µM (active) |  |  | > 100 µM (inactive) | > 100 µM (inactive) | > 100 µM (inactive) | > 100 µM (inactive) |  | > 100 µM (inactive) |  | 
CCNC(=S)Nc1c(C#N)c2n(c1C(=O)OCC)CCCCC2 | 33.1 µM (inactive) |  | > 100 µM (inactive) | > 100 µM (inactive) |  | > 100 µM (inactive) | > 100 µM (inactive) | > 100 µM (inactive) | 62.7 µM (inactive) | > 100 µM (inactive) | > 100 µM (inactive) | 35.2 µM (inactive) | > 100 µM (inactive) | 71.3 µM (inactive) | > 100 µM (inactive) | 30.9 µM (inactive) | > 100 µM (inactive) | > 100 µM (inactive) | > 100 µM (inactive)
CC(C)(C)OC(=O)CC(NC(=O)OC(C)(C)C)C(=O)N[C@@H]1CCCC[C@H]1C(=O)OCc1ccccc1 (stereo not given in full) | > 100 µM (inactive) | 25.2 µM (inactive) | 21.4 µM (inactive) | 24.7 µM (inactive) | 32.1 µM (inactive) | > 100 µM (inactive) | 62.2 µM (inactive) | 29.6 µM (inactive) | 77.3 µM (inactive) |  | 32.5 µM (inactive) | 27.8 µM (inactive) | 12.1 µM (inactive) | 20.5 µM (inactive) | 24.7 µM (inactive) |  | 36.1 µM (inactive) | 20.8 µM (inactive) | 22.3 µM (inactive)
COc1cc(NC(C)c2ccc3c(c2)OCCO3)cc(OC)c1OC (stereo not given) | 27.3 µM (inactive) | 45 µM (inactive) | 44.9 µM (inactive) | 23.9 µM (inactive) | 5.4 µM (inactive) | 56.4 µM (inactive) | 33 µM (inactive) | 31.6 µM (inactive) | 26.7 µM (inactive) | 77.1 µM (inactive) | 32.5 µM (inactive) | 58.7 µM (inactive) | 18.5 µM (inactive) | 23.9 µM (inactive) | 18.5 µM (inactive) | 33 µM (inactive) | 31.4 µM (inactive) |  | 
CCCC12Cc3c(OC)ccc(OC)c3CC(Cc3c(OC)ccc(OC)c31)C2=O (stereo not given) | > 100 µM (inactive) | > 100 µM (inactive) |  | > 100 µM (inactive) |  | > 100 µM (inactive) | > 100 µM (inactive) | > 100 µM (inactive) | > 100 µM (inactive) | > 100 µM (inactive) |  | > 100 µM (inactive) | 73.5 µM (inactive) |  | 7.21 µM (inactive) |  | > 100 µM (inactive) | > 100 µM (inactive) | 
O=C1N(c2ccccc2)C2(c3ccccc3)CC3CCCC13S2 (stereo not given) | > 100 µM (inactive) | 53 µM (inactive) | 21.9 µM (inactive) | 86.1 µM (inactive) |  | > 100 µM (inactive) | 71.8 µM (inactive) |  | 58.1 µM (inactive) | 75 µM (inactive) | 72.1 µM (inactive) | > 100 µM (inactive) | 33.3 µM (inactive) | 27.5 µM (inactive) | 26.2 µM (inactive) | 51.3 µM (inactive) | > 100 µM (inactive) | 43.3 µM (inactive) | 31.3 µM (inactive)
CC(=O)OC1CN2CCC1CC2 (stereo not given) [ACECLIDINE] | > 100 µM (inactive) | > 100 µM (inactive) | > 100 µM (inactive) | > 100 µM (inactive) |  | > 100 µM (inactive) | > 100 µM (inactive) | > 100 µM (inactive) | > 100 µM (inactive) | 3.45 µM (inactive) | > 100 µM (inactive) | > 100 µM (inactive) | > 100 µM (inactive) | > 100 µM (inactive) | > 100 µM (inactive) | > 100 µM (inactive) | > 100 µM (inactive) | > 100 µM (inactive) | > 100 µM (inactive)
CC(C)[C@]12O[C@H]1[C@@H]1O[C@@]13[C@@]1(C)CCC4=C(COC4=O)[C@@H]1C[C@@H]1O[C@@]13C2=O [TRIPTONIDE] | < 0.01 µM (active) | 0.0384 µM (active) | 0.0227 µM (active) | 0.0771 µM (active) | < 0.0113 µM (active) | 0.0126 µM (active) | 0.0287 µM (active) | < 0.01 µM (active) | 0.0229 µM (active) | 0.0178 µM (active) | 0.0248 µM (active) | < 0.01 µM (active) | 0.0141 µM (active) | < 0.01 µM (active) | < 0.01 µM (active) |  | 0.0173 µM (active) | 0.063 µM (active) | 0.0238 µM (active)
